Measurements: patent publication US7094801B2, “Chalcone derivatives and their use to treat diseases” (Atherogenics, Inc., priority 2001, dated 2006)

What was measured:
[1] = test system: VCAM-1; assay: In Vitro VCAM-1 Assay (TNF-α stimulated HAEC or HPAEC, cell ELISA); format: cell-based, human; conditions: TNF-α (1 ng/ml) stimulated HAEC or HPAEC, approximately 16 hours
Method: Cell Culture and compound dosing: Cultured primary human aortic (HAEC) or pulmonary (HPAEC) endothelial cells were obtained from Clonetics, Inc., and were used below passage 9. Cells were seeded in 96 well plates such that they would reach 90–95% confluency by the following day. On the following day the cells were stimulated with TNF-α (1 ng/ml) in the presence or absence of compounds dissolved in DMSO such that the final concentration of DMSO is 0.25% or less. To establish a dose curve for each compound, four concentrations in 2- to 5-fold increments were used. Cells were exposed to TNF-α and compounds for approximately 16 hours. The next day the cells were examined under microscope to score for visual signs of toxicity or cell stress.
Following 16 hr exposure to TNF-α and compound the media was discarded and the cells were washed once with Hanks Balanced Salt Solution (HBSS)/Phosphate buffered saline (PBS) (1:1). Primary antibodies against VCAM-1 (0.25 μg/ml in HBSS/PBS+5% FBS) were added and incubated for 30–60 minutes at 37° C. Cells were washed with HBSS/PBS three times, and secondary antibody Horse Radish Peroxidase (HRP)-conjugated goat anti-mouse IgG (1:500 in HBSS/PBS+5% FBS) were added and incubated for 30 minutes at 37° C. Cells were washed with HBSS/PBS four time and TMB substrate were added and incubated at room temperature in the dark until there was adequate development of blue color. The length of time of incubation was typically 5–15 minutes. 2N sulfuric acid was added to stop the color development and the data was collected by reading the absorbance on a BioRad ELISA plate reader at OD 450 nm. The results are expressed as IC50 values (the concentration (micromolar) of compound required to inhibit 50% of the maximal response of the control sample stimulated by TNF-α only).

| IC50 ([1]; Homo sapiens, 16 h) [µM] | melting point | IC50 ([1]; sodium salt) [µM] | IC50 [1] [µM] | SMILES |
| --- | --- | --- | --- | --- |
| < 1 | 71 to 75 °C | – | – | COc1cc(/C=C/C(=O)c2ccc(NS(C)(=O)=O)cc2)cc(-c2cccs2)c1OC [Example 14, N-{4-[3E-(3,4-Dimethoxy-5-thiophen-2-yl-phenyl)-acryloyl]-phenyl}-methanesulfonamide] |
| – | 214 to 217 °C (dec.) | < 5 | – | COc1cc(OC)c(-c2cc3ccccc3s2)cc1/C=C/C(=O)c1ccccc1C(=O)[O-].[Na+] [Example 9, 2-[3E-(5-Benzo[b]thiophen-2-yl-2,4-dimethoxy-phenyl)-acryloyl]-benzoic acid, sodium salt] |
| < 1 | 188 to 191 °C (dec.) | – | – | COc1cc(OCCCN2CCOCC2)c(/C=C/C(=O)c2ccc(C(=O)O)cc2)cc1-c1cccs1.Cl [Example 66, 4-{3E-[4-Methoxy-2-(3-morpholin-4-yl-propoxy)-5-thiophen-2-yl-phenyl]-acryloyl}-benzoic acid, hydrochloride] |
| < 5 | 201 to 202 °C (dec.) | – | – | COc1cc(OC)c(-c2csc(C)n2)cc1/C=C/C(=O)c1ccc(C(=O)O)cc1 [Example 69, 4-{3E-[2,4-Dimethoxy-5-(2-methyl-thiazol-4-yl)-phenyl]-acryloyl}-benzoic acid] |
| < 1 | 237 °C (dec.) | – | – | COc1ccc(/C=C/C(=O)c2ccc(C(=O)O)cc2)c(OC)c1-c1cc2ccccc2s1 [Example 44, 4-[3E-(3-Benzo[b]thiophen-2-yl-2,4-dimethoxy-phenyl)-acryloyl]-benzoic acid] |
| < 1 | 240 to 241 °C | – | – | COc1cc(OC)c(-c2cc3ccccc3s2)cc1/C=C/C(=O)c1ccc(C(N)=O)cc1 [Example 93, 4-[3E-(5-Benzo[b]thiophen-2-yl-2,4-dimethoxy-phenyl)-acryloyl]-benzamide] |
| < 10 | 238 °C (dec.) | – | – | COc1cc(OC)c(-c2cnccn2)cc1/C=C/C(=O)c1ccc(C(=O)O)cc1 [Example 46, 4-[3E-(2,4-Dimethoxy-5-pyrazin-2-yl-phenyl)-acryloyl]-benzoic acid] |
| < 5 | 210 to 212 °C | – | – | CCOc1cc(OC)c(/C=C/C(=O)c2ccc(C(=O)O)cc2)cc1-c1cccs1 [Example 53, 4-[3E-(4-Ethoxy-2-methoxy-5-thiophen-2-yl-phenyl)-acryloyl]-benzoic acid] |
| – | 220 to 223 °C (dec.) | – | < 1 | COc1cc(OC)c(-c2cc3ccccc3s2)cc1/C=C/C(=O)c1ccccc1C(=O)O [Example 7, 2-[3E-(5-Benzo[b]thiophen-2-yl-2,4-dimethoxy-phenyl)-acryloyl]-benzoic acid] |
| < 1 | > 240 °C (dec.) | – | – | COc1cc(OC)c(-c2cc3ccccc3s2)cc1/C=C/C(=O)c1ccc(S(=O)(=O)NC(=O)C(C)C)cc1 [Example 87, 4-[3E-(5-Benzo[b]thiophen-2-yl-2,4-dimethoxy-phenyl)-acryloyl]-N-isobutyryl-benzenesulfonamide] |
| < 10 | 235 °C (dec.) | – | – | COc1cc(OC)c(-c2cccs2)cc1/C=C/C(=O)c1ccc(-c2nn[nH]n2)cc1 [Example 78, 3E-(2,4-Dimethoxy-5-thiophen-2-yl-phenyl)-1-[4-(2H-tetrazol-5-yl)-phenyl]-propenone] |
| < 5 | > 260 °C | – | – | COc1cc(OC)c(-c2c(C)noc2C)cc1/C=C/C(=O)c1ccc(C(=O)O)cc1 [Example 33, 4-{3E-[5-(3,5-Dimethyl-isoxazol-4-yl)-2,4-dimethoxy-phenyl]-acryloyl}-benzoic acid] |
| < 1 | 193 to 195 °C | – | – | COc1cc(-c2cccs2)ccc1C(=O)/C=C/c1ccc(C(=O)O)cc1 [Example 19, 4-[3-(2-Methoxy-4-thiophen-2-yl-phenyl)-3-oxo-E-propenyl]-benzoic acid] |
| < 5 | 242 to 244 °C | – | – | O=C(O)c1ccc(C(=O)/C=C/c2ccc(F)c(-c3cccs3)c2)cc1 [Example 21, 4-[3E-{4-Fluoro-3-(thiophen-2-yl)-phenyl}-acryloyl]-benzoic acid] |
